For two compounds, Kb and inhibition results are on record in PMC2637447 (Neuropharmacology, 2008).

As usually defined, the Kb is the equilibrium dissociation constant of an antagonist, usually derived from a functional assay. Higher therefore signals a less potent antagonist. What is called inhibition is how much of the control response was suppressed.

One test has as its target GluK1 (Homo sapiens, UniProt P39086). Put plainly: Ca2+ fluorescence assay, antagonism of L-glutamate. It is filed as cell-based.
The target in a further test is GluK3 (Homo sapiens, UniProt Q13003). Nature of the test: whole-cell voltage clamp, % inhibition at […] of […] glutamate currents. It is filed as cell-based. To be noted: read-out: % inhibition at 30 μM.
Sequence of GluK3 (Q13003 32-919): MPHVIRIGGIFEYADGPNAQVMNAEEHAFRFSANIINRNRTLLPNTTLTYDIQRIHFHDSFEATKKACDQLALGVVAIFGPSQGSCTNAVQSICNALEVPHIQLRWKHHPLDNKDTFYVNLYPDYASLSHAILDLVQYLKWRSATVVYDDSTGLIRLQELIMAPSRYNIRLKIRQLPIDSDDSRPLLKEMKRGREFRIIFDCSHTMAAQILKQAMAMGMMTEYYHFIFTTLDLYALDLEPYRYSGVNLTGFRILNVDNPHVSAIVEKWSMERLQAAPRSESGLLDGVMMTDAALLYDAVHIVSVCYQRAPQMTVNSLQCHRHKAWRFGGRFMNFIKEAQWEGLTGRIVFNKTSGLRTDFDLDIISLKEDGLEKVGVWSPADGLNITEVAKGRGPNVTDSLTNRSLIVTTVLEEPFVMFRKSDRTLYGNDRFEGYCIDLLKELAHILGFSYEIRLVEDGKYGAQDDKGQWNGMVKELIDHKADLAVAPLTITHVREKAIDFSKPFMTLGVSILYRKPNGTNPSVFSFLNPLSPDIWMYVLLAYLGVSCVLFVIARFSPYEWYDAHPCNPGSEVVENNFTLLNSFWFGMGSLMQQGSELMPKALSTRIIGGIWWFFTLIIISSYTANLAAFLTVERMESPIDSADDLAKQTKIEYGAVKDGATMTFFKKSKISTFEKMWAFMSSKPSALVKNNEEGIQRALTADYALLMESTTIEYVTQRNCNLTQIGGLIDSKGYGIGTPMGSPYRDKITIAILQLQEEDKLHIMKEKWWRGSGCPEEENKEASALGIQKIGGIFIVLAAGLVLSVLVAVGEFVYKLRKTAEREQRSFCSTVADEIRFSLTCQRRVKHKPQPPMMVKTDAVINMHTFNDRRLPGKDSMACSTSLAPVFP

Sequence of GluK1 (P39086 31-918): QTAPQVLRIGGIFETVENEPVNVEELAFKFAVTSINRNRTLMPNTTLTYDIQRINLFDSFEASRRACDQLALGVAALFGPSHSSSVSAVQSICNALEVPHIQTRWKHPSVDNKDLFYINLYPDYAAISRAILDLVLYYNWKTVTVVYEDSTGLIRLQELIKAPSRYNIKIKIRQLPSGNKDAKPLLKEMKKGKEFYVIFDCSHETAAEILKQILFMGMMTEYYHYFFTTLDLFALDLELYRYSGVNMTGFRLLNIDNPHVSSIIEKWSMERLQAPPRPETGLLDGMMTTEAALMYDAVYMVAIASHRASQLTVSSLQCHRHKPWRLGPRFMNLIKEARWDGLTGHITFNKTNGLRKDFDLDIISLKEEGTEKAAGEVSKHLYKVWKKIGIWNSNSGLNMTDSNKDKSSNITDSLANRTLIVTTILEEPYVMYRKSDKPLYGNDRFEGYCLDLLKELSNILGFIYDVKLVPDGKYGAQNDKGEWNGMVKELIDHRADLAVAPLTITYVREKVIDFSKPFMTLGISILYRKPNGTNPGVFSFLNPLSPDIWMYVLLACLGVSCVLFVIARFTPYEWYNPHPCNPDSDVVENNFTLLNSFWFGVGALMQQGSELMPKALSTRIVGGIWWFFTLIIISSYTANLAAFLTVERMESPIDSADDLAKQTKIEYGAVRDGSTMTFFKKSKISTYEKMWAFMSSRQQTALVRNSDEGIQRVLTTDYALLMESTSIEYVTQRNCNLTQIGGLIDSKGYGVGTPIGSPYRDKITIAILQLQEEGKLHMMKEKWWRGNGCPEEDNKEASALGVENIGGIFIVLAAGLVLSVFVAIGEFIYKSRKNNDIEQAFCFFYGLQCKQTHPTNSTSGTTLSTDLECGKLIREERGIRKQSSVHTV

As for `Cc1cn(C[C@H](N)C(=O)O)c(=O)n(Cc2cc(-c3ccccc3)sc2C(=O)O)c1=O` [ACET, (S)-1-(2-amino-2-carboxyethyl)-3-(2-carboxy-5-phenylthiophene-3-yl-methyl)-5-methylpyrimidine-2,4-dione], at GluK1, the Kb stood at 1.4 ± 0.2 nM. Further, at GluK3, the inhibition at 30 µM was found to be 30 ± 5%.

The compound UBP304 yielded an antagonist dissociation constant (Kb) at GluK1 of 110 ± 30 nM.
